Data reported in publication PMC12481569, “Novltex: A New Class of Antibiotics with Potent Activity against Multidrug-Resistant Bacterial Pathogens–Design, Synthesis, and Biological Evaluation” (Journal of Medicinal Chemistry, 2025).
In brackets after ≈: the same amount, converted by molar mass. Several values for one entry are separate records, joined by “and”; a condition that tells them apart may be missing. Equal entries are not always repeated. Where two headings read alike, the source gives them in different places. Positions of bridges follow the written chain, without caps; N, C: chain ends. Non-standard residues stand in square brackets, D forms with d. Residues, ends and D or L forms follow the SMILES beside them. dChg = N[C@@H](C(=O)O)C1CCCCC1

Tests used:
Assay in all cases: microbe, parasite or virus in culture
MRSA ATCC 33591 = format: cell-based, Staphylococcus aureus; conditions: for MIC against MRSA ATCC 33591: 24 h, two independent duplicates
Procedure: (§1) MICs were performed as previously reported 4. For MIC testing all peptides were dissolved in DMSO.
Bacterial cultures were grown overnight on Mueller-Hinton Agar (MHA) plates and adjusted to a final inoculum of 10^5 – 10^6 CFU/mL. 100 µl of ino culum in Meuller -Hinton broth (MHB) was mixed with equal volume of peptides (dissolved in MHB) at 2x their concentration in a 96 well plate . For daptomycin MIC determination, the same protocol was followed with the addition of 50 mg/L calcium chloride to the medium. MIC values were determined in the media contain ing polysorbate 80 (0.002%, v/v) to prevent non -specific adsorption of the peptides to plastic surfaces. The final peptides concentrations ranged from 0.0625 – 32 µg/mL. The 96 well plates were then incubated at 37 °C for 24 h. All the experiments were performed in two independent duplicates and the MIC was determined as the lowest concentration in which no visible growth was observed. […]

[1] = tested on: Multidrug-Resistant (MDR) E. faecium; conditions: 24 h; for MIC: Enterococcus faecium
Procedure: (§2) We further evaluated analogue 12 against multidrug-resistant (MDR) strains of S. aureus (acquired from the NARSA collection) and MDR E. faecium (acquired from International Health Management Associates, IHMA, Europe Sarl), comparing its activity to various classes of clinically used antibiotics (Table ).
as §1
(§3) Bacterial cultures were grown overnight on Mueller-Hinton Agar (MHA) plates and adjusted to a final inoculum of 10^5 – 10^6 CFU/mL. 100 µl of ino culum in Meuller -Hinton broth (MHB) was mixed with equal volume of peptides (dissolved in MHB) at 2x their concentration in a 96 well plate . For daptomycin MIC determination, the same protocol was followed with the addition of 50 mg/L calcium chloride to the medium. MIC values were determined in the media contain ing polysorbate 80 (0.002%, v/v) to prevent non -specific adsorption of the peptides to plastic surfaces. The final peptides concentrations ranged from 0.0625 – 32 µg/mL. The 96 well plates were then incubated at 37 °C for 24 h. All the experiments were performed in two independent duplicates and the MIC was determined as the lowest concentration in which no visible growth was observed.
(§4) Antibiotics MIC break points ( µg/mL)
(§5) Table. S4: Susceptibility cut-off values (MIC breakpoints) for various clinical antibiotics. […]

[2] = tested on: Multidrug-Resistant (MDR) S. aureus; conditions: for MIC: Staphylococcus aureus; for susceptibility/resistance of the S. aureus isolates based on the MIC breakpoints: four MDR S. aureus isolates
Procedure: as §2, §1, §3, §4, §5

[3] = read-out: MIC, Enterococcus faecium 1563254
[4] = read-out: MIC, Enterococcus faecium 1581582
[5] = read-out: MIC, Enterococcus faecium 1766686
[6] = 24 h, read-out: MIC, Staphylococcus aureus NR 45914
[7] = 24 h, read-out: MIC, Staphylococcus aureus NR 45926
[8] = 24 h, read-out: MIC, Staphylococcus aureus NR 45930
[9] = 24 h, read-out: MIC, Staphylococcus aureus NR 46062
[10] = broth dilution in MHB with 0.002% v/v polysorbate 80, inoculum 10^5-10^6 CFU/mL, 37 °C, no visible growth, Table 1

With `CC(C)C[C@@H]1NC(=O)[C@H](C)NC(=O)[C@H](NC(=O)[C@H](CO)NC(=O)[C@@H](CCCCN)NC(=O)[C@H](NC(=O)[C@@H](N)Cc2ccccc2)C2CCCCC2)[C@H](C)OC(=O)[C@H](CC(C)C)NC1=O` [analogue 11, Leu2Chg–Novltex] (H-F[dChg][dK]S[dT]ALL; ester 5-C) the “fold decrease in antibacterial activity (MIC) compared to analogue 12” value (MRSA ATCC 33591; MRSA ATCC 33591) was 32 fold and the “MIC against MRSA ATCC 33591” value (MRSA ATCC 33591; Table 2, MHB with 0.002% polysorbate 80, 37 °C) was 8 µg/mL (≈ 8.89 µM).

Compound `CC1(C)S[C@@H]2[C@H](NC(=O)[C@H](N)c3ccccc3)C(=O)N2[C@H]1C(=O)O` [Ampicillin] has an MIC [1, 3] of over 32 µg/mL, an MIC [1, 4] of over 32 µg/mL and an MIC [1, 5] of over 32 µg/mL. The MIC [2, 6] was 2 µg/mL (≈ 5.72 µM), the MIC [2, 7] was 32 µg/mL (≈ 91.6 µM) and the MIC [2, 8] was 8 µg/mL (≈ 22.9 µM). The MIC [2, 9] was 8 µg/mL (≈ 22.9 µM) and the “susceptibility/resistance of the S. aureus isolates based on the MIC breakpoints” value [2] was 3 out of 4 isolates showed resistance.

With `C[C@H]1COc2c(N3CCN(C)CC3)c(F)cc3c(=O)c(C(=O)O)cn1c23` [Levofloxacin] the MIC [1, 3] was 32 µg/mL (≈ 88.6 µM), the MIC [1, 4] was 32 µg/mL (≈ 88.6 µM) and the MIC [1, 5] was 32 µg/mL (≈ 88.6 µM). For the same compound, the MIC [2, 6] was 1 µg/mL (≈ 2.77 µM), the MIC [2, 7] was 4 µg/mL (≈ 11.1 µM) and the MIC [2, 8] was over 32 µg/mL. The MIC [2, 9] was 32 µg/mL (≈ 88.6 µM) and the “susceptibility/resistance of the S. aureus isolates based on the MIC breakpoints” value [2] was 3 out of 4 isolates showed resistance.

For `CO/N=C(\C(=O)N[C@@H]1C(=O)N2C(C(=O)O)=C(COC(C)=O)CS[C@H]12)c1csc(N)n1` [Cefotaxime], the MIC [1, 3] was over 32 µg/mL, the MIC [1, 4] was over 32 µg/mL and the MIC [1, 5] was over 32 µg/mL. It also gave an MIC [2, 6] of 4 µg/mL (≈ 8.78 µM), an MIC [2, 7] of 16 µg/mL (≈ 35.1 µM) and an MIC [2, 8] of 8 µg/mL (≈ 17.6 µM). For the same compound, the MIC [2, 9] was 16 µg/mL (≈ 35.1 µM).

In the case of `CC(C)C[C@H](NC(=O)[C@H](N)Cc1ccccc1)C(=O)N[C@H](CCCCN)C(=O)N[C@@H](CO)C(=O)N[C@H]1C(=O)N[C@@H](C)C(=O)N[C@@H](CC(C)C)C(=O)N[C@@H](CC(C)C)C(=O)O[C@H]1C` [analogue 5], the “MIC against MRSA ATCC 33591” value (MRSA ATCC 33591; [10]) was over 32 µg/mL.

With `CC(C)C[C@@H]1NC(=O)[C@H](C)NC(=O)[C@H](NC(=O)[C@@H](CO)NC(=O)[C@H](CCCCN)NC(=O)[C@@H](CC(C)C)NC(=O)[C@@H](N)Cc2ccccc2)[C@H](C)OC(=O)[C@H](CC(C)C)NC1=O` [analogue 6] the “MIC against MRSA ATCC 33591” value (MRSA ATCC 33591; [10]) was over 32 µg/mL.

Clovibactin was tested, and the “MIC, Enterococcus faecium 1563254” value ([1]; MDR clinical isolate 1563254, MHB, 0.002% polysorbate 80, 37 °C, daptomycin with 50 mg/L calcium chloride) was 0.063 µg/mL, the “MIC, Enterococcus faecium 1581582” value ([1]; MDR clinical isolate 1581582, MHB, 0.002% polysorbate 80, 37 °C, daptomycin with 50 mg/L calcium chloride) was 0.25 µg/mL and the “MIC, Enterococcus faecium 1766686” value ([1]; MDR clinical isolate 1766686, MHB, 0.002% polysorbate 80, 37 °C, daptomycin with 50 mg/L calcium chloride) was 0.25 µg/mL. For the same compound, the “MIC, Staphylococcus aureus NR 45914” value ([2]; MDR strain NR 45914, MHB, 0.002% polysorbate 80, 37 °C, 24 h, daptomycin with 50 mg/L calcium chloride) was 0.063 µg/mL, the “MIC, Staphylococcus aureus NR 45926” value ([2]; MDR strain NR 45926, MHB, 0.002% polysorbate 80, 37 °C, 24 h, daptomycin with 50 mg/L calcium chloride) was 0.063 µg/mL and the “MIC, Staphylococcus aureus NR 45930” value ([2]; MDR strain NR 45930, MHB, 0.002% polysorbate 80, 37 °C, 24 h, daptomycin with 50 mg/L calcium chloride) was 0.25 µg/mL. For the same compound, the “MIC, Staphylococcus aureus NR 46062” value ([2]; MDR strain NR 46062, MHB, 0.002% polysorbate 80, 37 °C, 24 h, daptomycin with 50 mg/L calcium chloride) was 0.063 µg/mL.

In the case of `CC(C)C[C@@H]1NC(=O)[C@H](C)NC(=O)[C@H](NC(=O)[C@H](CO)NC(=O)[C@H](CCCCN)NC(=O)[C@H](CC(C)C)NC(=O)[C@@H](N)Cc2ccccc2)[C@H](C)OC(=O)[C@H](CC(C)C)NC1=O` [analogue 8], the “MIC against MRSA ATCC 33591” value (MRSA ATCC 33591; [10]) was over 32 µg/mL.

`CC(C)C[C@@H]1NC(=O)[C@H](C)NC(=O)[C@H](NC(=O)[C@H](CO)NC(=O)[C@H](CCCCN)NC(=O)[C@@H](CC(C)C)NC(=O)[C@H](N)Cc2ccccc2)[C@H](C)OC(=O)[C@H](CC(C)C)NC1=O` [analogue 7] was tested, and the “MIC against MRSA ATCC 33591” value (MRSA ATCC 33591; [10]) was > 32 µg/mL and 32 µg/mL.

In the case of `CC(C)C[C@H](NC(=O)[C@H](N)Cc1ccccc1)C(=O)N[C@@H](CCCCN)C(=O)N[C@H](CO)C(=O)N[C@H]1C(=O)N[C@@H](C)C(=O)N[C@@H](CC(C)C)C(=O)N[C@@H](CC(C)C)C(=O)O[C@H]1C` [analogue 3], the “MIC against MRSA ATCC 33591” value (MRSA ATCC 33591; [10]) was 32 µg/mL (≈ 36.6 µM).
